From patent US12527736B2, “Punica granatum extract and its cosmetic uses” (L'OREAL, priority 2019, dated 2026)

System: Normal human fibroblasts
Assay: Peroxidation of lipids test: protection against UVA-induced lipid peroxidation (8-iso-Prostanes release)
Assay type: cell-based
Conditions: pure ellagic acid at 3 μM for 24 h, then UVA exposure, assayed 2 h30 after exposure
Description: An evaluation of the protection potential against UVA-induced lipid peroxidation of Punica granatum extract according to the invention obtained according to Example 1 was made and compared to the protection against UVA-induced lipid peroxidation of pure ellagic acid. Normal human fibroblasts are treated either with the Punica granatum extract according to the invention at 0.001% or with pure ellagic acid at 3 μM for 24 h and then exposed to a UVA dose inducing no more than 20% cell death. A control was performed consisting in normal human fibroblasts exposed to a UVA dose inducing no more than 20% cell death. 8-iso-Prostanes release is assayed 2 h30 after the exposure.

O=c1oc2c(O)c(O)cc3c(=O)oc4c(O)c(O)cc1c4c23 [Ellagic acid, ellagic acid]
protection against lipid peroxidation (UV-exposed control = 0%): 35%
release of 8-iso-Prostanes (UV-exposed control = 100%): 65%
